{
  "source": "patent US11638424B2",
  "about": "“Mosquito attractant formulations and uses thereof” (priority 2017, dated 2023)",
  "key": {"RBCs": {"test_system": "RBCs", "test": "Volatile collection (SPME) and GC-MS analysis of RBC headspace", "assay_type": "cell-based, Human", "details": "10 μM HMBPP, FIGS. 2C and D", "procedure": "RBCs (1 ml) were transferred to 4 ml glass vials closed with auto-sampler screw caps, and equilibrated in a thermostat at 38° C. for 15 min. Then, 2.5 μl of HMBPP or Nanopure water were added to the RBCs samples (final concentration: 10 μM HMBPP per sample). Volatiles were collected from the headspace using solid phase micro-extraction (SPME; Supelco, Bellmonte, Pa., USA) (M. J. Yang, el al., J. Chem. Educ., 74, 1130-1132 (1997) and A. K. Borg-Karlson and R. Mozuraitis, Naturforsch., C. 51, 599-602 (1996)). […] Electron ionisation mass spectra were determined at 70 eV with the ion source kept at 230° C. and mass spectra were obtained at mass to charge ratio (m/z) 29-400. […] A similar protocol was used for the quantification of CO2, with the mass spectral data and GC retention times being compared with emission from frozen CO2. The relative amounts of CO2 in arbitrary units were determined from the areas of the respective chromatogram peaks using single ion display mode at m/z 44±0.5 Da. The amounts of identified compounds were quantified by the use of extracted ion chromatograms, since they are very minute. […] The estimations were based on the very same quantifications given in ‘arbitrary area units’. […]"}, "A. gambiae sensu lato": {"test_system": "A. gambiae sensu lato", "test": "Mosquito fitness after blood feeding (blood meal size, fecundity, survival)", "assay_type": "in vivo", "details": "hRBCs vs RBCs", "procedure": "Mosquitoes used in this study were from the laboratory colony of A. gambiae sensu lato (Keele line, University of Glasgow), which was produced by balanced interbreeding of four A. gambiae s.s. strains (H. Hurd, et al. Evolution, 59, 2560-2572 (2005)). Larvae were reared under standard insectary conditions (27±1° C., 70% humidity, 12 h light: 12 h dark cycle) and fed on TetraMin fish flakes (Tetra ltd., Germany). Pupae were transferred into holding cages for emergence. Emerged adults were fed ad libitum on 5% glucose solution, supplemented with 0.05% (w/v) 4-aminobenzoic acid (PABA, Sigma-Aldrich), through soaked filters on top of the 2 ml tubes and with soaked filter pads inside cages. Red blood cells (RBCs) were washed with Roswell Park Memorial Institute (RPMI) medium and stored in RPMI at 50% haematocrit at 4° C. until use. To measure the effect of HMBPP on mosquito fitness, RBCs stored in RPMI were centrifuged at 2500×g for 5 min followed by replacement of the medium with AB serum for a final haematocrit of 40%. HMBPP (stock concentration at 4 mM in Nanopure water, stored at −80° C.) was diluted to 10 μM in 1 ml RBC suspension, and the corresponding volume of Nanopure water was added to the control RBCs. All experiments were, unless otherwise stated, conducted on 5-7 days post-emergence female mosquitoes maintained in separated cages (approximately 210 individuals per cohort) and fed RBCs either with or without HMBPP for 30 min. All experiments were performed in triplicates.\nGLMM statistical modelling was used to corroborate the validity of results based on the whole data set by including the effect of replications (experimental blocks), including weighting for multiple replications. In all analyses, the effect of the main experimental effects (e.g. treatment) was investigated while controlling for variation in experimental replication (random variable). For all results, the significance of all explanatory effects were evaluated by using likelihood ratio test (LRT). Analyses were performed using R statistical software. […]"}},
  "data": [
    {"smiles": "C/C(=C\\COP(=O)(O)OP(=O)(O)O)CO", "note": "[HMBPP, (E)-4-hydroxy-3-methyl-but-2-enyl pyrophosphate]", "values": [
      {"measurement": "increase in aldehydes (C8-C10:al) in headspace of hRBCs compared to RBCs", "setting": "RBCs", "value": "1.7-to-5.2 fold"},
      {"measurement": "increase in monoterpenes (α- and ß-pinene, limonene) in headspace of hRBCs compared to RBCs", "setting": "RBCs", "value": "1.2-to-1.6 fold"},
      {"measurement": "mosquito fecundity", "setting": "A. gambiae sensu lato; FIG. 3A", "value": "Neither mosquito fecundity, nor survival was affected"},
      {"measurement": "mosquito survival", "setting": "A. gambiae sensu lato; FIG. 3B", "value": "Neither mosquito fecundity, nor survival was affected"},
      {"measurement": "size of mosquito blood meals", "setting": "A. gambiae sensu lato; FIG. 3C", "value": "significantly increased"}
    ]}
  ]
}
